# Reference: PubChem BioAssay AID1918999 (Molecular Pharmacology Branch, DTP, NCI, 2023)
# Test system: 556581-035-R-J1-PDC complex spheroid growth
# Assay: Anticancer human tumor 556581-035-R-J1-PDC patient-derived ovarian carcinoma cell line growth inhibition [AhR]
# Conditions: for IC50: curve of first compound; for viability, T/C: stronger effect = lower value
# From the text: Multicellular complex tumor spheroid response to aryl hydrocarbon receptor antagonists in combination with a variety of drugs and investigational agents in selected tumor cell lines
# The current study was undertaken to assess response to aryl hydrocarbon receptor antagonists in combination with standard-of-care drugs and investigational agents in solid tumor complex spheroid models. Complex spheroids include a stromal component modeled by human endothelial cells (HUVEC) and fibroblasts modeled by human mesenchymal stem cells (MSCs). The concentration ranges selected for each drug and investigational agent were based upon clinically achievable concentrations if the clinical Cmax of the agent was known.
# Compounds. The drugs and investigational agents: BAY 2416964 (NSC825713), GNF351 (NSC835774), CH-223191 (NSC835775), CPI-455 (NSC825282), aza-TdCyd (NSC777586), decitabine (NSC127716), belinostat (NSC758774), entinostat (NSC756642), pevonedistat (NSC761192), tazemetostat (NSC777109), talazoparib (NSC765396), olaparib (NSC753686), selinexor (NSC780203), nedisertib (M3814, NSC802822), bortezomib (NSC756655), venetoclax (NSC766270), doxorubicin (NSC123127), elimusertib (BAY189344, NSC800525), ceralasertib (AZD6738, NSC777638), TAK-243 (NSC785004), alisertib (NSC759677), etoposide (NSC141540), topotecan (NSC609699), eribulin (NSC707389), gemcitabine (NSC613327), carboplatin (NSC241240), cisplatin (NSC119875), and SN-38 (NSC673596) were obtained from the National Cancer Institute (NCI) Developmental Therapeutics Program Chemical Repository (32). The FDA-approved anticancer drug set is available from the Developmental Therapeutics Program at https://dtp.cancer.gov/organization/dscb/obtaining/available plates.htm. […] The stock solutions were prepared in dimethyl sulfoxide (DMSO, Sigma-Aldrich, St. Louis, MO, cat. D2650), except for the platinum compounds which were prepared in saline (Quality Biological, Gaithersburg, MD, cat. 114-055-101), at 800-fold the tested concentration and stored at -70 degrees C prior to their use. All drugs and investigational agents were tested over a range starting from a high concentration at or near the clinical Cmax and decreasing in half-log increments. If the clinical Cmax for an agent had not been determined, the highest concentration tested was 10 microM (Table 1).
# Cell Culture. All cells were maintained in an incubator at 37 degrees C and 5% CO2 with 95% humidity. The PDC lines were cultured according to standard operating procedures established by the NCI PDMR (https://pdmr.cancer.gov). Briefly, all PDCs were thawed and cultured in Matrigel-coated flasks prepared with a working solution of 1X Ham's F-12 nutrient mix, without supplementation (Invitrogen, Waltham, MA, cat. 11765054), 100 U/mL penicillin-streptomycin (Invitrogen, cat. 15140122), and 2.5% Matrigel (Corning Inc., Corning, NY, cat. 354248) for the first three passages. All PDCs were cultured in complete DMEM/F-12 media containing advanced DMEM/F-12 (Invitrogen, cat. 12634028), 4.9% defined fetal bovine serum, heat inactivated (HyClone Laboratories Inc., Logan, UT, cat. SH30070.03HI), 389 ng/mL hydrocortisone (Sigma-Aldrich, cat. H4001), 9.7 ng/mL human EGF recombinant protein (Invitrogen, cat. PHG0313), 23.4 microg/mL adenine (Sigma-Aldrich, cat. A2786), 97.3 U/mL penicillin-streptomycin (Invitrogen, cat. 15140122), 1.9 mM L-glutamine (Invitrogen, cat. 25030081), and 9.7 microM Y-27632 dihydrochloride (Tocris Bioscience, Bristol, United Kingdom, cat. 1254). The PDCs were cultured in complete DMEM/F12 media without 10 microM Y-27632 dihydrochloride for at least two passages prior to the screen. The established cell lines NCI-H1341 and […] were cultured in DMEM/F-12, HEPES (Invitrogen, cat. 11330032), 5% defined fetal bovine serum (HyClone Laboratories Inc., cat. SH30070.03), ITS premix universal culture supplement [insulin (5 microg/mL), transferrin (5 microg/mL), and selenious acid (5 ng/mL)] […]
# [1] = second compound 0.1 µM, first compound 0.0316 µM
# [2] = second compound 0.1 µM, first compound 0.1 µM
# [3] = second compound 0.1 µM, first compound 0.316 µM
# [4] = second compound 0.1 µM, first compound 1 µM
# [5] = second compound 0.1 µM, first compound 3.16 µM
# [6] = second compound 0.1 µM, first compound 10 µM
# [7] = second compound 0.316 µM, first compound 0.0316 µM
# [8] = second compound 0.316 µM, first compound 0.1 µM
# [9] = second compound 0.316 µM, first compound 0.316 µM
# [10] = second compound 0.316 µM, first compound 1 µM
# [11] = second compound 0.316 µM, first compound 3.16 µM
# [12] = second compound 0.316 µM, first compound 10 µM
# [13] = second compound 1 µM, first compound 0.0316 µM
# [14] = second compound 1 µM, first compound 0.1 µM
# [15] = second compound 1 µM, first compound 0.316 µM
# [16] = second compound 1 µM, first compound 1 µM
# [17] = second compound 1 µM, first compound 3.16 µM
# [18] = second compound 1 µM, first compound 10 µM
# [19] = second compound 3.16 µM, first compound 0.0316 µM
# [20] = second compound 3.16 µM, first compound 0.1 µM
# [21] = second compound 3.16 µM, first compound 0.316 µM
# [22] = second compound 3.16 µM, first compound 1 µM
# [23] = second compound 3.16 µM, first compound 3.16 µM
# [24] = second compound 3.16 µM, first compound 10 µM
# [25] = second compound 10 µM, first compound 0.0316 µM
# [26] = second compound 10 µM, first compound 0.1 µM
# [27] = second compound 10 µM, first compound 0.316 µM
# [28] = second compound 10 µM, first compound 1 µM
# [29] = second compound 10 µM, first compound 3.16 µM
# [30] = second compound 10 µM, first compound 10 µM
# 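For viability, T/C in this document: compound exposure lasted 7 days; 100% = DMSO vehicle control growth.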
IC50 (second compound 0.1 µM),IC50 (second compound 0.316 µM),IC50 (second compound 1 µM),IC50 (second compound 3.16 µM),IC50 (second compound 10 µM),SMILES,"viability, T/C [1]","viability, T/C [2]","viability, T/C [3]","viability, T/C [4]","viability, T/C [5]","viability, T/C [6]","viability, T/C [7]","viability, T/C [8]","viability, T/C [9]","viability, T/C [10]","viability, T/C [11]","viability, T/C [12]","viability, T/C [13]","viability, T/C [14]","viability, T/C [15]",further results
> 10 µM,8.09 µM,> 10 µM,6.63 µM,7.38 µM,COc1cc(C2c3cc4c(cc3C(OC3OC5COC(C)OC5C(O)C3O)C3COC(=O)C23)OCO4)cc(OC)c1O (stereo not given) + CC(CO)NC(=O)c1cc(-c2ccc(Cl)cc2)nn(-c2cnn(C)c2)c1=O,111%,117%,80%,62.9%,66%,50.9%,95.4%,102%,85.6%,67.8%,72.8%,44.6%,109%,104%,81.9%,"viability, T/C [16]: 62.6%; viability, T/C [17]: 60.5%; viability, T/C [18]: 51.8%; viability, T/C [19]: 103%; viability, T/C [20]: 102%; viability, T/C [21]: 80%; viability, T/C [22]: 74.5%; viability, T/C [23]: 59.9%; viability, T/C [24]: 44.5%; viability, T/C [25]: 105%; viability, T/C [26]: 98.8%; viability, T/C [27]: 81.7%; viability, T/C [28]: 73.5%; viability, T/C [29]: 59.7%; viability, T/C [30]: 46.4%"
< 0.0316 µM,< 0.0316 µM,< 0.0316 µM,< 0.0316 µM,< 0.0316 µM,Nc1ccn(C2OC(CO)C(O)C2(F)F)c(=O)n1 (stereo not given) + CC(CO)NC(=O)c1cc(-c2ccc(Cl)cc2)nn(-c2cnn(C)c2)c1=O,37%,40.3%,35.8%,35.8%,37.5%,31.4%,36.6%,35.2%,39.2%,41.1%,32%,29.3%,35%,36.5%,36.5%,"viability, T/C [16]: 38.5%; viability, T/C [17]: 36.2%; viability, T/C [18]: 36.6%; viability, T/C [19]: 32.8%; viability, T/C [20]: 37.3%; viability, T/C [21]: 36.2%; viability, T/C [22]: 38.3%; viability, T/C [23]: 35.5%; viability, T/C [24]: 34.3%; viability, T/C [25]: 37.4%; viability, T/C [26]: 34.4%; viability, T/C [27]: 42.5%; viability, T/C [28]: 40.6%; viability, T/C [29]: 39.6%; viability, T/C [30]: 36%"
